Usually MIC stands for the lowest concentration found to suppress growth.

≈ marks a conversion by molar mass, not a printed value.

The results in this text go back to ChEMBL document CHEMBL3046933, “Synthesis and evaluation of a series of aminocyanopyridines as antimicrobial agents” (2011).

Common to all, as to type: functional
The test system of test [1] is Pseudomonas aeruginosa. Nature of the test: Antibacterial activity against Pseudomonas aeruginosa […] by macrobroth dilution method.
Test [2] deals with Micrococcus luteus. Nature of the test: Antibacterial activity against Micrococcus luteus NRRLB 4375 by macrobroth dilution method. Background: Broth dilution looks for growth in wells or tubes with falling amounts of substance.
The subject of test [3] is Pseudomonas aeruginosa. Briefly: Antibacterial activity against Pseudomonas aeruginosa […] at 100 ug/ml after 24 hr by disk diffusion method. As to conditions: read-out: DIZ. (Agar diffusion results depend on both activity and mobility in agar.)
In test [4] the test system is Micrococcus luteus. Nature of the test: Antibacterial activity against Micrococcus luteus NRRLB 4375 at 100 ug/ml after 24 hr by disk diffusion method. The conditions noted are these: NRRLB 4375, 24 h, read-out: DIZ.
Test [5] relates to Bacillus subtilis. Briefly: Antibacterial activity against Bacillus subtilis RSKK 244 by macrobroth dilution method.
In test [6] the test system is Bacillus subtilis. Nature of the test: Antibacterial activity against Bacillus subtilis RSKK 244 at 100 ug/ml after 24 hr by disk diffusion method. As to conditions: RSKK 244, 24 h, read-out: DIZ.
Another test concerns Priestia megaterium. Briefly: Antibacterial activity against Bacillus megaterium clinical isolate at 100 ug/ml after 24 hr by disk diffusion method. As to conditions: read-out: DIZ.
The subject of another test is Candida albicans. Briefly: Antifungal activity against Candida albicans ATCC 90028 at 100 ug/ml by disk diffusion method. As to conditions: read-out: DIZ.

Turning to `Cc1ccc(-c2c(C#N)c(N)nc3c2CCCC3)s1`, the results for the MIC against Pseudomonas aeruginosa [1] and with Micrococcus luteus [2] were 12.5 µg/mL (≈ 46.4 µM) and 25 µg/mL (≈ 92.8 µM), respectively. Further, the zone of inhibition at 100 µg/mL was determined as 20 mm with Pseudomonas aeruginosa [3] and 12 mm in the test on Micrococcus luteus [4].
On to `Cc1ccc(-c2c(C#N)c(N)nc3c2CCCCC3)o1`, for which the minimal inhibitory concentration (MIC) against Pseudomonas aeruginosa [1] and against Micrococcus luteus [2] was 25 µg/mL (≈ 93.5 µM) in each case. Besides, the values for the zone of inhibition at 100 µg/mL in the test on Pseudomonas aeruginosa [3] and in the test on Micrococcus luteus [4] were 14 mm and 9 mm, respectively.
`Cc1ccc(-c2c(C#N)c(N)nc3c2CCCC3)o1`: the MIC against Micrococcus luteus [2] was 37.5 µg/mL (≈ 148 µM). The zone of inhibition at 100 µg/mL in the test with Micrococcus luteus [4] amounted to 11 mm.
Regarding `Cc1ccsc1-c1c(C#N)c(N)nc2c1CCC2`, the minimum inhibitory concentration (MIC) against Micrococcus luteus [2] and against Bacillus subtilis [5] was 37.5 µg/mL (≈ 147 µM) each time. For the same molecule, the zone of inhibition at 100 µg/mL in the test on Micrococcus luteus [4] stood at 11 mm; with Bacillus subtilis [6], 13 mm.
With `Cc1ccsc1-c1c(C#N)c(N)nc2c1CCCC2`, the figures for the MIC in the test with Pseudomonas aeruginosa [1] and in the test on Micrococcus luteus [2] were 25 µg/mL (≈ 92.8 µM) and 37.5 µg/mL (≈ 139 µM), respectively. Moreover, the zone of inhibition at 100 µg/mL with Pseudomonas aeruginosa [3] and with Micrococcus luteus [4] was 9 mm in each case.
Consider `Cc1ccsc1-c1c(C#N)c(N)nc2c1CCCCC2`, for which the values for the minimal inhibitory concentration (MIC) against Pseudomonas aeruginosa [1] and against Bacillus subtilis [5] were 12.5 µg/mL (≈ 44.1 µM) and 37.5 µg/mL (≈ 132 µM), respectively. Besides, the values for the zone of inhibition at 100 µg/mL in the test with Pseudomonas aeruginosa [3] and with Bacillus subtilis [6] were 17 mm and 10 mm, respectively.
Regarding `Cc1ccc(-c2c(C#N)c(N)nc3c2CCC3)s1`, the values for the MIC against Pseudomonas aeruginosa [1], against Micrococcus luteus [2] and in the test on Bacillus subtilis [5] were 25 µg/mL (≈ 97.9 µM), 37.5 µg/mL (≈ 147 µM) and 25 µg/mL (≈ 97.9 µM), respectively. In addition, the figures for the zone of inhibition at 100 µg/mL in the test on Pseudomonas aeruginosa [3], in the test with Micrococcus luteus [4] and in the test with Bacillus subtilis [6] were 15 mm, 12 mm and 15 mm, respectively.
With `Cc1ccc(-c2c(C#N)c(N)nc3c2CCCCC3)s1`, the values for the minimum inhibitory concentration (MIC) in the test with Pseudomonas aeruginosa [1], in the test with Micrococcus luteus [2] and in the test with Bacillus subtilis [5] were 25 µg/mL (≈ 88.2 µM), 25 µg/mL (≈ 88.2 µM) and 37.5 µg/mL (≈ 132 µM), respectively. Also, the zone of inhibition at 100 µg/mL in the test on Pseudomonas aeruginosa [3] amounted to 19 mm; with Micrococcus luteus [4] it was 20 mm; with Bacillus subtilis [6] it was 10 mm.
In the case of `Cc1ccc(-c2c(C#N)c(N)nc3c2CCC3)o1`, the figures for the MIC with Pseudomonas aeruginosa [1], in the test on Micrococcus luteus [2] and with Bacillus subtilis [5] were 12.5 µg/mL (≈ 52.2 µM), 25 µg/mL (≈ 104 µM) and 12.5 µg/mL (≈ 52.2 µM), respectively. Also, the zone of inhibition at 100 µg/mL in the test on Pseudomonas aeruginosa [3] came out at 17 mm; in the test on Micrococcus luteus [4], 15 mm; with Bacillus subtilis [6], 22.5 mm.
In the test on Micrococcus luteus [2], `CC1(C)S[C@@H]2[C@H](NC(=O)[C@H](N)c3ccccc3)C(=O)N2[C@H]1C(=O)O` [AMPICILLIN] had a minimum inhibitory concentration (MIC) of 8 µg/mL (≈ 22.9 µM). Moreover, the zone of inhibition at 100 µg/mL with Priestia megaterium came to 10 mm; in the test with Micrococcus luteus [4] it was 31 mm; in the test with Bacillus subtilis [6], 15 mm.
`OC(Cn1cncn1)(Cn1cncn1)c1ccc(F)cc1F` [FLUCONAZOLE]: in the test on Micrococcus luteus [2], the lowest concentration to inhibit growth (MIC) was 8 µg/mL (≈ 26.1 µM).
As to `CC(=O)N1CCN(c2ccc(OCC3COC(Cn4ccnc4)(c4ccc(Cl)cc4Cl)O3)cc2)CC1` (stereo not drawn) [KETOCONAZOLE], the zone of inhibition at 100 µg/mL in the test with Candida albicans was 16 mm.
Consider `CC1(C)S[C@@H]2[C@H](NC(=O)Cc3ccccc3)C(=O)N2[C@H]1C(=O)O` [PENICILLIN G], for which the zone of inhibition at 100 µg/mL in the test with Micrococcus luteus [4] worked out at 9 mm.
`CN(C)[C@@H]1C(O)=C(C(N)=O)C(=O)[C@@]2(O)C(O)=C3C(=O)c4c(O)cccc4[C@@](C)(O)[C@H]3C[C@@H]12` [TETRACYCLINE]: the zone of inhibition at 100 µg/mL in the test on Micrococcus luteus [4] amounted to 28 mm.
